Where no end group is shown, it is not given here.
System: Xylella fastidiosa DSM10026/ATCC35879

KWKLFKKIEKVGQNIRDGIIKAGPAVAVVGQATQIAK-NH2 (C-terminus assumed) [Cecropin A BR001]
MIC (µM): 6.25 µM
MIC (µg mL^-1): 25 µg/mL

— patent EP4385997A1 (priority 2022, dated 2024)
